Data from patent US12220465B2, “Compositions and methods for targeted treatment and imaging of cancer or tumors” (Washington University, priority 2018, dated 2025).

Key:
[1] = tested on: malignant MM cells (MM1s and H929); assay: MTT survival assay of malignant MM cells treated with Bortezomib; type: cell-based; details: Homo sapiens, 48 hours, read-out: IC50, killing of myeloma cells
Procedure: (§1) Anticancer agents have preferential cytotoxic effects on cancer cells compared to non-malignant cells (such as EPCs). Therefore we tested the effect of BTZ (anti-cancer drug) on the survival of malignant MM cells (MM1s and H929) and on EPCs, in which cells were treated with increasing concentrations of Bortezomib, and the killing effect was evaluated after 48 hours using MTT assay (FIGS. 8A and B). Also EPCs were treated with and without high-dose of BTZ (50 nM) and we measured the in vitro migration of the EPCs towards MM-conditioned media, using a Boyden chamber migration assay, and the number of migrating EPCs was analyzed by flow cytometry (FIG. 8C).

EPCs [2] = assay: Boyden chamber migration of agent-treated EPCs towards MM-conditioned media; type: cell-based; details: for effect on migration of EPCs to tumor: increasing doses, towards MM-conditioned media
Procedure: as §1
(§2) Prodrugs such as TC and BPA are inert agents that are not supposed to have effect by them selves on cancer or normal cell survival, but when activated using positron emission and neutrons, respectively, these agents become active drugs and kill the cell that they reside in and adjacent cells next to it. We tested the effect of TC and BPA (prodrugs) on the survival of EPCs, in which cells were treated with increasing concentrations of these, and the killing effect was evaluated after 48 hours using MTT assay (FIGS. 9A and 10A). And to confirm the loading of EPCs with TC and BPA, we treated the EPCs with increasing doses of TC and BPA, digested the cells with nitric acid, and used ICP-MS to detect the level of Titanium and boron in the EPCs, respectively (FIGS. 9B and 10B). Also EPCs were treated with and without increasing doses of TC and BPA and we measured the in vitro migration of the EPCs towards MM-conditioned media, using a Boyden chamber migration assay, and the number of migrating EPCs was analyzed by flow cytometry (FIGS. 9C and 10C).
These agents have no cytotoxicity effect, to confirm that we tested the effect of LS-542, (as a model of an imaging agent) on survival of EPCs, in which cells were treated with increasing concentrations of these, and the killing effect was evaluated after 48 hours using MTT assay (FIG. 11A). And to confirm the loading of EPCs with LS-542, we treated the EPCs with increasing doses of LS-542, and the amount of labeling was measure by the mean-flurescence intensity of the dye by flow cytometry (FIG. 11B). Also EPCs were treated with and without increasing doses of LS-542 and we measured the in vitro migration of the EPCs towards MM-conditioned media, using a Boyden chamber migration assay, and the number of migrating EPCs was analyzed by flow cytometry (FIG. 11C).

EPCs [3] = assay: MTT survival assay of EPCs treated with agent; type: cell-based; details: 48 hours; for effect on survival of EPCs: increasing concentrations
Procedure: as §1
as §2, with “And to confirm the loading of EPCs with TC and BPA, we treated the EPCs with increasing doses of TC and BPA, digested the cells with nitric acid, and used ICP-MS to detect the level of Titanium and boron in the EPCs, respectively (FIGS. 9B and 10B).” left out
These agents have no cytotoxicity effect, to confirm that we tested the effect of LS-542, (as a model of an imaging agent) on survival of EPCs, in which cells were treated with increasing concentrations of these, and the killing effect was evaluated after 48 hours using MTT assay (FIG. 11A). […] Also EPCs were treated with and without increasing doses of LS-542 and we measured the in vitro migration of the EPCs towards MM-conditioned media, using a Boyden chamber migration assay, and the number of migrating EPCs was analyzed by flow cytometry (FIG. 11C).

EPCs [4] = details: calcein-UV and PI, flow cytometry
Procedure: The effect of Tc on the cell vitality/viability by staining the cells with viability dye (calcein-UV) and propidium iodide (PI) and analyzing by flow cytometry was tested.

## CC(C)C[C@H](NC(=O)[C@H](Cc1ccccc1)NC(=O)c1cnccn1)B(O)O [BTZ, Bortezomib]
[1]
  IC50: 5 nM
EPCs [2]; BTZ 50 nM for 2 hrs, MM-conditioned media
  effect of loading on migration of EPCs towards cancer cells: did not affect the migration of EPCs
EPCs [3]
  BTZ concentration up to which EPCs are not sensitive (survival): up to 50 nM

## [Cl-].[Cl-].[Ti+4].c1cc[cH-]c1.c1cc[cH-]c1 [Titanocene]
EPCs [4]
  concentration up to which Tc is not toxic to EPCs: up to 150 μM
EPCs [2]
  effect on migration of EPCs to tumor: no effect
EPCs [2]; same concentration range, up to 150 μM
  effect on migration of EPCs to conditioned MM media: did not affect the migration of EPCs
EPCs [3]
  effect on survival of EPCs: no effect on the survival

## N[C@@H](Cc1ccc(B(O)O)cc1)C(=O)O [BPA, 4-Borono-L-phenylalanine]
EPCs [2]
  effect on migration of EPCs to tumor: no effect
EPCs [3]
  effect on survival of EPCs: no effect on the survival
